# Test results as given in US7368279B2, “Three dimensional bioengineered smooth muscle tissue and sphincters and methods therefor” (The Regents of The University of Michigan, priority 2004, dated 2008).
# Columns and labels:
# [1] = tested on: bioengineered IAS rings; experiment: Isometric force (contraction/relaxation) of bioengineered IAS rings; type: cell-based, rabbit
# Description: Excitability and contractility of bioengineered IAS rings was measured using techniques adapted from previous work (Dennis et al., In Vitro Cellular & Developmental Biology Animal 36: 327-335, 2000. Dennis et al., American Journal of Physiology Cell Physiology 280: C288-C295, 2001). The diameter of the sphincter rings was measured and used to calculate cross-sectional area (CSA). The bioengineered sphincters were separated from their molds using forceps (FIG. 1 Panel E) and the minimum ring diameter was measured using a calibrated eyepiece and a 5× or 10× objective lens on an inverted microscope (Zeiss Axiovert 25, Thornwood, N.Y.). The cross section was circular, and therefore the CSA was calculated using the measured diameter. To measure the passive baseline force, the differentiation media in the plate containing the bioengineered sphincter was replaced with 37° C. Krebs solution (NaCl (119 mM), KCl (4.6 mM), NaHCO3 (15 mM), CaCl2 (1.5 mM), MgCl2 (1.2 mM), […], and glucose (11 mM)) and the plate was placed on a heated aluminum platform, which maintained a temperature of 37° C. until the testing was complete. For contractility measurements, one end of the bioengineered sphincter was anchored by a stainless steel pin (10 mm×0.1 mm diameter) to the PDMS substrate within the plate, while another stainless steel pin was bent in the shape of a hook and attached by canning wax to a force transducer (resolution of 1.4 μN and range of 2mN) as previously described (Dennis et al., In Vitro Cellular & Developmental Biology Animal 36: 327-335, 2000, Macpherson et al., J Physiol 500: 523-533, 1997) and as depicted in FIG. 1 (Panels F and G). The bioengineered sphincter was stretched approximately 50% of its resting length using a three-axis micromanipulator. The ring was allowed to sit for 20 minutes in order to reestablish a stable baseline level of force (Pb), which was measured as the average baseline passive force preceding stimulation. All force measurements were collected at 100 samples/second for 60 seconds and recorded using a computer with LabVIEW data acquisition software (National Instruments, Austin, Tex.). A median filter of rank 2 was applied to all raw force data before being stored to minimize digitization noise without causing a phase delay for rapidly changing forces. The peak isometric force (ΔP) was determined by subtracting the Pb from the total force values. Specific force (sΔP) was calculated by dividing ΔP by the CSA. Data analysis was done using LabVIEW and Microsoft Excel software programs. Each measurement was repeated at least three times and the mean value was recorded. Contractions were induced in the rings by the addition of acetylcholine. Dose-response relationships of acetylcholine were investigated in the range of 10^−6M to 10^−10M. Incremental doses of acetylcholine were added after the maximal response of the preceding concentration and the establishment of a new baseline. Relaxation response in the rings was induced by the addition of 8-Bromoadenosine 3′:5′-Cyclic Monophosphate (8-br-cAMP). Maximal relaxation was achieved after approximately 4 minutes and therefore relaxation measurements are collective of four consecutive 1-minute data recordings.
# [2] = tested on: association of actin with myosin in sphincteric smooth muscle cells; experiment: Immunoprecipitation/immunoblot: acetylcholine-induced association of actin with myosin; type: cell-based, rat; details: 0.1 μM acetylcholine
# Description: (§1) Decreased association of actin with myosin and decreased association of tropomyosin with HSP27 in sphincteric smooth muscle cells from old rats (28-33 month old) was observed when compared to adult counterparts (18 months old). Whole cell lysates (WCL) from acetylcholine (0.1 μM) stimulated and unstimulated sphincteric smooth muscle cells of adult and old rats were extracted and immunoprecipitated as described previously (Somara et al, Amer. J. Physiol. 286(6): C1290-1301, 2004). Briefly, actin was immunoprecipited using an anti-actin antibody followed by immunoblotting with an anti-myosin antibody. […] To further investigate phospho-HSP27-induced reinstatement of smooth muscle cell contractile function, sphincter smooth muscle cells isolated from old rats IAS were transfected with phosphomimic-HSP27 as described previously. Whole cells lysates were extracted and immunoprecipitated as described previously (Somara et al, Amer. J. Physiol. 286(6): C1290-1301, 2004).
# [3] = tested on: association of tropomyosin with HSP27 in sphincteric smooth muscle cells; experiment: Immunoprecipitation/immunoblot: acetylcholine-induced association of tropomyosin with HSP27; type: cell-based, rat; details: 0.1 μM acetylcholine
# Description: as §1
# [4] = tested on: rat IAS cells; experiment: Acetylcholine-induced contraction of isolated sphincteric smooth muscle cells of adult and old rats; type: cell-based; details: for cell population with less than 80 μM cell length: 30 second stimulation
# Description: To determine the effect of acetylcholine on contraction of isolated muscle cells, acetylcholine (10^−7 M) was added to a suspension of isolated smooth muscle cells for 30 seconds or 4 minutes with untreated cells as controls. The reaction was stopped and cells were fixed by the addition of 0.1 ml of acrolein at a final concentration of 0.1%. Individual cell lengths were measured by computerized image micrometry (Bitar et al., Am J Physiol 242: G400-G407, 1982. Bitar et al., Science 216: 531-533, 1982). The length of cells in the control state or after addition of acetylcholine was obtained by measuring 30-50 cells encountered randomly in successive microscopic fields from each of three separate experiments. The contractile response is defined as the decrease in the average length of the cells counted and is expressed as the percent change from the control length. Acetylcholine-induced contraction of isolated sphincteric smooth muscle cells was defined as the percent decrease in cell length compared to control. […] In old rats, 10^−7M acetylcholine-induced contraction at 30 seconds was approximately 3-fold less forceful (12.8±4.4%) than adult rat cells. […] In addition, after acetylcholine-induced contraction, there was a preponderance of longer cells and in old rats (24% above 80 μm) when compared to adult counterparts (17% above 80).
compound,measurement,setting,value
CC(=O)OCC[N+](C)(C)C [acetylcholine],concentration at which the concentration-dependent contractile response reaches a plateau,[1]; 10-fold incremental doses 10^−10 M to 10^−6 M,10^−7 M
same,peak isometric force ΔP,"[1]; 10^−7 M acetylcholine, Krebs buffer, sustained for 4 minutes",9.8±3.8 μN
same,maximal ΔP induced by acetylcholine stimulation,[1]; Krebs buffer,33.7 μN
same,acetylcholine-induced association of actin with myosin,"[2]; adult rats, 30 seconds",243.70±8.20%
same,acetylcholine-induced association of actin with myosin,"[2]; adult rats, 4 minutes",274.34±10.43%
same,acetylcholine-induced association of actin with myosin,"[2]; old rats, 30 sec",175.32±10.12%
same,acetylcholine-induced association of actin with myosin,"[2]; old rats, 4 minutes",231.79±10.45%
same,acetylcholine-induced association of tropomyosin with HSP27,"[3]; adult rats, 30 seconds",218.67±5.48%
same,acetylcholine-induced association of tropomyosin with HSP27,"[3]; adult rats, 4 minutes",268.39±6.38%
same,acetylcholine-induced association of tropomyosin with HSP27,"[3]; old rats, 30 sec",149.93±8.60%
same,acetylcholine-induced association of tropomyosin with HSP27,"[3]; old rats, 4 minutes",223.21±7.46%
same,fold less forceful contraction in old than adult rat cells,"[4]; 10^−7 M acetylcholine, 30 seconds",approximately 3 fold
same,"contraction, percent decrease in cell length compared to control","[4]; adult rat IAS cells, 10^−7 M acetylcholine, 30 seconds",44.7±1.34%
same,"contraction, percent decrease in cell length compared to control","[4]; adult rat IAS cells, 10^−7 M acetylcholine, 4 minutes",40.65±1.43%
same,cell population with less than 80 μM cell length,"[4]; adult rat IAS cells, 10^−7 M acetylcholine",89%
same,longer cells above 80 after acetylcholine-induced contraction,[4]; adult rats,17%
same,"contraction, percent decrease in cell length compared to control","[4]; old rat IAS cells, 10^−7 M acetylcholine, 30 seconds",12.8±4.4%
same,"contraction, percent decrease in cell length compared to control","[4]; old rat IAS cells, 10^−7 M acetylcholine, 4 minutes",16.99±6.07%
same,cell population with less than 80 μM cell length,"[4]; old rat IAS cells, 10^−7 M acetylcholine",71%
same,longer cells above 80 μm after acetylcholine-induced contraction,[4]; old rats,24%
